The values below come from paper PMC6390093, “Structural basis of small RNA hydrolysis by oligoribonuclease (CpsORN) from Colwellia psychrerythraea strain 34H” (Scientific Reports, 2019).

In series [1] the target is T1, CpsORN (Colwellia psychrerythraea, UniProt Q47VZ4, D163A).
T1 construct: gene orn
Description: X-ray crystal structure, […] Å. In kind it is binding. The settings on record: 5 mM pNP-TMP, 1 mM MnCl2 added, no metal seen in active site; two molecules per site; inactive mutant.

The target of series [2] is T2, CpsORN (Colwellia psychrerythraea, UniProt Q47VZ4).
T2 construct: gene orn
Briefly: spectrophotometric release of p-nitrophenolate at […] nm. In kind it is biochemical. To be noted: 3 mM substrate, 1 mM MnCl2, 50 mM Tris pH 8.0, 150 mM NaCl, 25 °C, 400 nM protein.

For series [3], the target named is T2, CpsORN. Briefly: X-ray crystal structure, […] Å. The settings on record: 5 mM uridine added, 1 mM MnCl2; active site with Mn2+; two molecules per site; text describes a phosphate on U2. In kind it is binding.
Series [4] deals with the molecule itself. Briefly: AUC; sedimentation velocity, 0.5 mg/mL CpsORN in 20 mM Tris-HCl pH 8.0, 150 mM NaCl, 45,000 rpm, monitored at 280 nm, SEDFIT.
Series [5] concerns the molecule itself. Briefly: crystal structure; four crystal forms (unliganded, pNP-TMP-bound, linked uridine-bound, separated uridine-bound), sitting- or hanging-drop vapour diffusion at 293 K.

With `Cc1cn([C@H]2C[C@H](O)[C@@H](COP(=O)(O)Oc3ccc([N+](=O)[O-])cc3)O2)c(=O)[nH]c1=O` [pNP-TMP], the “X-ray crystal structure, 2.2 Å” value on CpsORN [1] is listed as “The pNP-TMP complexed D163A mutant CpsORN crystal contains two pNP-TMP molecules in the active site”. Moreover, the “spectrophotometric release of p-nitrophenolate at 420 nm” value on CpsORN [2] was “CpsORN showed hydrolysis activity toward pNP-TMP in the presence of manganese or magnesium”.
Turning to `O=c1ccn([C@@H]2O[C@H](COP(=O)(O)O)[C@@H](O)[C@H]2O)c(=O)[nH]1`, on CpsORN [3], the “X-ray crystal structure, 2.2 Å” value is 6A4F (separated uridine-bound CpsORN).

B1: oligoribonuclease from Colwellia psychrerythraea strain 34H (CpsORN), wild-type (enzyme, UniProt Q47VZ4 1-181, looked up)
chain: MAGNDSNLIWLDLEMTGLEPVEDVILEIAIIITDSELNILAQGPIFAISQTDDVLDNMNPWCIEHHGKSGLTQRCRDSEVSLAHATKESLAFVQEWVPQGKSPMCGNSIGQDRRFINKYMPDFEDHFHYRNLDVSTIKELAKRWKPEVLESVVKTGAHLALDDIKESIAELKVYRELFFKL
notes: oligoribonuclease (CpsORN) of Colwellia psychrerythraea strain 34H, full-length gene orn, residues 1-181; pET-28a construct with a thrombin site after the His tag; also called unliganded CpsORN; source: E. coli BL21(DE3), purified (Ni-NTA, thrombin cleavage, Superdex 200); not shown: His6, N-terminal, cleaved
The term stoichiometry N denotes a count of units in the complex or per binding partner. Regarding B1, the “stoichiometry N” value in series [4] came to 2.

B2: CpsORN D163A inactive mutant (enzyme, Colwellia psychrerythraea strain 34H, UniProt Q47VZ4 1-181, looked up)
chain: MAGNDSNLIWLDLEMTGLEPVEDVILEIAIIITDSELNILAQGPIFAISQTDDVLDNMNPWCIEHHGKSGLTQRCRDSEVSLAHATKESLAFVQEWVPQGKSPMCGNSIGQDRRFINKYMPDFEDHFHYRNLDVSTIKELAKRWKPEVLESVVKTGAHLALDAIKESIAELKVYRELFFKL
notes: oligoribonuclease (CpsORN) of Colwellia psychrerythraea strain 34H, full-length gene orn with Asp163 replaced by alanine; Made from the wild-type plasmid and purified by the same procedure as the wild type; also called D163A mutant; source: E. coli BL21(DE3), purified (Ni-NTA, thrombin cleavage, Superdex 200); not shown: His6, N-terminal, cleaved
Turning to B2, in series [5], the binding result is reported as “binds”.
